From patent US12225917B2 (priority 2017, dated 2025)
Like-named read-outs stand apart in the source and are kept apart here.

Key:
E. coli causing scour = experiment: In vitro MIC against pig disease strains incl. scour-inducing E. coli (Example 5); assay type: cell-based; conditions: Escherichia coli
Clostridium Difficile = experiment: In vitro MIC and MBC against Clostridium difficile (Example 6); assay type: cell-based
[1] = General safety in broilers reared to market weight by histology (Example 8); assay type: in vivo, broiler chickens
Excerpt: This study evaluates the safety of IRP001 chloride in broilers through examination of histology.
The objective of this study was to test the general safety of IRP001 chloride in broilers reared to market weight by examination of histology.
The experiment consisted of the following treatments (1 pen per treatment, Table 54).
Birds were kept in a pen having an area of 4×10=40 ft^2, with clean wood shavings as bedding with a thickness of approximately 4 inches. The pen had 5 feet high side walls with a bottom 1 ½ feet being of solid wood to prevent bird migration.
The temperature of the building was monitored. Environmental conditions during the trial (temperature) were appropriate (optimum) to the age of the animals. Illumination was provided by fluorescent bulbs placed above the pens. The diets were provided ad libitum in one tube-type feeder per pen. From D0 until D7, feed was also supplied on a tray placed on the litter of each pen. Water was provided ad libitum from one Plasson drinker per pen.
Standard floor pen management practices were used throughout the experiment. Animals and housing facilities were inspected twice daily, observing and recording the general health status, constant feed and water supply as well as temperature, removing all dead birds, and recognizing unexpected events. Birds found dead during the study were noted on the Daily Mortality Record, and were not replaced. Pen number, the date of mortality, sex, weight, and diagnosis were recorded.
Day of hatch male Cobb chicks were obtained and ten male broiler chicks were placed in each pen. Accountabilities of all test animals and any extra birds were recorded on animal disposition form. The birds were sexed at the hatchery. The breeder flock history and vaccination record at the hatchery were recorded. Bird weights by pen were recorded on D0 and 42.
All weights were by pen. Treatment Starter feed was fed from D0 to 21. On D21, non-consumed Starter was weighed by pen and discarded. Grower feed was issued and fed until D35. On D35, non-consumed Grower was weighed by pen and discarded. Finisher feed was fed until D42. On D42, non-consumed Finisher was weighed by pen and discarded.
On the day of study completion (D42), five birds from each pen were humanly euthanized and upper, mid and lower gut sections plus liver lobe were collected and stored in neutral buffered formalin. Theses samples were shipped for analysis.

Clostridium Perfringens [2] = experiment: microbe, parasite or virus in culture
[3] = Tissue residue study by LC-MS/MS after in-feed administration (Example 7): muscle and liver; conditions: for Mean residue, Breast / Mean residue, Lower leg / Mean residue, Upper leg / Mean residue IRP001, Liver: n = 3
[4] = tested on: Eimeria acervulina, E. maxima, and E. tenella; experiment: Anticoccidial efficacy/sensitivity cage study (Example 9): lesion scores, oocysts per gram fecal material, coccidiosis mortality; conditions: for % Cocci Mort.: Day 0-20, infected
Clostridium Perfringens [5] = tested on: Clostridium Perfringens
[6] = IRP001 0.05 g/kg in feed, pen 2
[7] = Group 1, 0.03 g/kg IRP001 in feed (0-35 days), 0 days of washout
[8] = Group 2, 0.03 g/kg IRP001 in feed (0-35 days), 1 day of washout
[9] = Group 3, 0.03 g/kg IRP001 in feed (0-35 days), 2 days of washout
[10] = Group 4, 0.03 g/kg IRP001 in feed (0-35 days), 4 days of washout
[11] = Group 5, 0.03 g/kg IRP001 in feed (0-35 days), 7 days of washout
[12] = Group 6, 0.03 g/kg IRP001 in feed (0-28 days), 14 days of washout
[13] = Group 11, 0.3 g/kg IRP001 in feed (0-35 days), 7 days of washout
[14] = Group 12, 0.3 g/kg IRP001 in feed (0-28 days), 14 days of washout

COc1ccc2cc3[n+](cc2c1OC)CCc1cc2c(cc1-3)OCO2 [Berberine, berberine]
MIC (E. coli causing scour): 125 µg/mL | MBC (Clostridium Difficile; Clostridioides difficile, clinical isolate of C. difficile, test agent Berberine sulfate): 1000 µg/mL | adverse reaction or unanticipated event ([1]; 1 g berberine in 1 kg of commercial feed over 42 days): no adverse reaction or unanticipated event has been observed | Histology index: Coccidia [1, 6]: 3.2 | Histology index: Cumulative Pathology [1, 6]: 9.6 | Histology index: Enteritis [1, 6]: 6.4 | Histology index: Coccidia ([1]; IRP001 0.5 g/kg in feed, pen 3): 1.6 | Histology index: Cumulative Pathology ([1]; IRP001 0.5 g/kg in feed, pen 3): 7.6 | Histology index: Enteritis ([1]; IRP001 0.5 g/kg in feed, pen 3): 6.0 | Histology index: Coccidia ([1]; IRP001 1 g/kg in feed, pen 4): 1.0 | Histology index: Cumulative Pathology ([1]; IRP001 1 g/kg in feed, pen 4): 9.2 | Histology index: Enteritis ([1]; IRP001 1 g/kg in feed, pen 4): 8.2 | MBC (Clostridium Perfringens [2]): 125 µg/mL | MIC (Clostridium Perfringens [2]): 62.5 to 125 µg/mL | inhibition at 125 µg/mL (Clostridium Perfringens [2]; read-out: killing of viable cells): 100% | residue level in liver ([3]; 0.03 g/kg feed, before and after washout): below the limit of detection | mean residue level in muscle tissues ([3]; 0.03 g/kg feed, with or without washout): not detectable | residue level in muscle tissues (breast, lower leg, upper leg) ([3]; 0.3 g/kg feed, after 4 days washout, listed as IRP001): below the LLOD | residue level in liver ([3]; 0.3 g/kg feed, after a 14-day washout): below the limit of quantitation | Mean residue, Breast [3, 7]: <LLOD (outputs indicating values lower than 2 ng/g are considered to be within baseline noise, below the LLOD, and as such are not detectable) | Mean residue, Lower leg [3, 7]: <LLOD (outputs indicating values lower than 2 ng/g are considered to be within baseline noise, below the LLOD, and as such are not detectable) | Mean residue, Upper leg [3, 7]: <LLOD (outputs indicating values lower than 2 ng/g are considered to be within baseline noise, below the LLOD, and as such are not detectable) | Mean residue, Breast [3, 8]: <LLOD (outputs indicating values lower than 2 ng/g are considered to be within baseline noise, below the LLOD, and as such are not detectable) | Mean residue, Lower leg [3, 8]: <LLOD (outputs indicating values lower than 2 ng/g are considered to be within baseline noise, below the LLOD, and as such are not detectable) | Mean residue, Upper leg [3, 8]: <LLOD (outputs indicating values lower than 2 ng/g are considered to be within baseline noise, below the LLOD, and as such are not detectable) | Mean residue, Breast [3, 9]: <LLOD (outputs indicating values lower than 2 ng/g are considered to be within baseline noise, below the LLOD, and as such are not detectable) | Mean residue, Lower leg [3, 9]: <LLOD (outputs indicating values lower than 2 ng/g are considered to be within baseline noise, below the LLOD, and as such are not detectable) | Mean residue, Upper leg [3, 9]: <LLOD (outputs indicating values lower than 2 ng/g are considered to be within baseline noise, below the LLOD, and as such are not detectable) | Mean residue, Breast [3, 10]: <LLOD (outputs indicating values lower than 2 ng/g are considered to be within baseline noise, below the LLOD, and as such are not detectable) | Mean residue, Lower leg [3, 10]: <LLOD (outputs indicating values lower than 2 ng/g are considered to be within baseline noise, below the LLOD, and as such are not detectable) | Mean residue, Upper leg [3, 10]: <LLOD (outputs indicating values lower than 2 ng/g are considered to be within baseline noise, below the LLOD, and as such are not detectable) | Mean residue, Breast [3, 11]: <LLOD (outputs indicating values lower than 2 ng/g are considered to be within baseline noise, below the LLOD, and as such are not detectable) | Mean residue, Lower leg [3, 11]: <LLOD (outputs indicating values lower than 2 ng/g are considered to be within baseline noise, below the LLOD, and as such are not detectable) | Mean residue, Upper leg [3, 11]: <LLOD (outputs indicating values lower than 2 ng/g are considered to be within baseline noise, below the LLOD, and as such are not detectable) | Mean residue, Breast [3, 12]: <LLOD (outputs indicating values lower than 2 ng/g are considered to be within baseline noise, below the LLOD, and as such are not detectable) | Mean residue, Lower leg [3, 12]: <LLOD (outputs indicating values lower than 2 ng/g are considered to be within baseline noise, below the LLOD, and as such are not detectable) | Mean residue, Upper leg [3, 12]: <LLOD (outputs indicating values lower than 2 ng/g are considered to be within baseline noise, below the LLOD, and as such are not detectable) | Mean residue, Breast ([3]; Group 10, 0.3 g/kg IRP001 in feed (0-35 days), 4 days of washout): <LLOD (outputs indicating values lower than 2 ng/g are considered to be within baseline noise, below the LLOD, and as such are not detectable) | Mean residue, Breast [3, 13]: <LLOD (outputs indicating values lower than 2 ng/g are considered to be within baseline noise, below the LLOD, and as such are not detectable) | Mean residue, Lower leg [3, 13]: <LLOD (outputs indicating values lower than 2 ng/g are considered to be within baseline noise, below the LLOD, and as such are not detectable) | Mean residue, Upper leg [3, 13]: <LLOD (outputs indicating values lower than 2 ng/g are considered to be within baseline noise, below the LLOD, and as such are not detectable) | Mean residue, Breast [3, 14]: <LLOD (outputs indicating values lower than 2 ng/g are considered to be within baseline noise, below the LLOD, and as such are not detectable) | Mean residue, Lower leg [3, 14]: <LLOD (outputs indicating values lower than 2 ng/g are considered to be within baseline noise, below the LLOD, and as such are not detectable) | Mean residue, Upper leg [3, 14]: <LLOD (outputs indicating values lower than 2 ng/g are considered to be within baseline noise, below the LLOD, and as such are not detectable) | maximum acceptable residue (lower than one in a million risk of cancer) ([3]; estimated from typical lifetime consumption of chicken meat, breast or leg muscle tissue): 13 ng berberine per gram of chicken meat | Mean residue IRP001, Liver ([3]; 0.03 g/kg IRP001 in feed days 0-28, 14 days of washout, euthanasia day 42): <LLOD (outputs indicating values lower than 2 ng/g are considered to be within baseline noise, below the LLOD, and as such are not detectable) | Mean residue IRP001, Liver ([3]; 0.03 g/kg IRP001 in feed days 0-35, 0 days of washout, euthanasia day 35): <LLOD (outputs indicating values lower than 2 ng/g are considered to be within baseline noise, below the LLOD, and as such are not detectable) | Mean residue IRP001, Liver ([3]; 0.03 g/kg IRP001 in feed days 0-35, 1 day of washout, euthanasia day 36): <LLOD (outputs indicating values lower than 2 ng/g are considered to be within baseline noise, below the LLOD, and as such are not detectable) | Mean residue IRP001, Liver ([3]; 0.03 g/kg IRP001 in feed days 0-35, 2 days of washout, euthanasia day 37): <LLOD (outputs indicating values lower than 2 ng/g are considered to be within baseline noise, below the LLOD, and as such are not detectable) | Mean residue IRP001, Liver ([3]; 0.03 g/kg IRP001 in feed days 0-35, 4 days of washout, euthanasia day 39): <LLOD (outputs indicating values lower than 2 ng/g are considered to be within baseline noise, below the LLOD, and as such are not detectable) | Mean residue IRP001, Liver ([3]; 0.03 g/kg IRP001 in feed days 0-35, 7 days of washout, euthanasia day 42): <LLOD (outputs indicating values lower than 2 ng/g are considered to be within baseline noise, below the LLOD, and as such are not detectable) | % Cocci Mort. ([4]; IRP001 0.03 g/kg): 0.0b % | % Cocci Mort. ([4]; IRP001 0.10 g/kg): 0.0b % | Lesion Scores Average ([4]; IRP001 0.03 g/kg): 1.8b | Lesion Scores E. acer. ([4]; IRP001 0.03 g/kg): 2.3b | Lesion Scores E. maxima ([4]; IRP001 0.03 g/kg): 1.8bc | Lesion Scores E. tenella ([4]; IRP001 0.03 g/kg): 1.2ab | Lesion Scores Average ([4]; IRP001 0.10 g/kg): 1.5bc | Lesion Scores E. acer. ([4]; IRP001 0.10 g/kg): 2.1bc | Lesion Scores E. maxima ([4]; IRP001 0.10 g/kg): 1.5bcd | Lesion Scores E. tenella ([4]; IRP001 0.10 g/kg): 0.8bcd

CN[C@H](CC(C)C)C(=O)N[C@H]1C(=O)N[C@@H](CC(N)=O)C(=O)N[C@H]2C(=O)N[C@H]3C(=O)N[C@H](C(=O)N[C@H](C(=O)O)c4cc(O)cc(O)c4-c4cc3ccc4O)[C@H](O)c3ccc(c(Cl)c3)Oc3cc2cc(c3O[C@@H]2O[C@H](CO)[C@@H](O)[C@H](O)[C@H]2O[C@H]2C[C@](C)(N)[C@H](O)[C@H](C)O2)Oc2ccc(cc2Cl)[C@H]1O [Vancomycin, reference compound]
MIC (Clostridium Difficile): within the expected range | MIC (Clostridium Perfringens [5]): within the expected range
